The results in this text go back to patent US6372769B1 (priority 1999, dated 2002).

Molecules are shown by their SMILES. Values joined by “and” are separate entries in the source; they are usually repeats but may differ in a detail not shown here. Equal entries are not always repeated.

Conditions in all cases: in vivo
In data set [1] the test system is Erysiphe graminis f. sp. tritici.
The test system of data set [2] is Puccinia recondita f. sp. tritici.
The test system of data set [3] is Pyricularia oryzae.
Data set [4] concerns Sphaerotheca fulginea.
Data set [5] relates to Septoria nodorum.
For data set [6], the system named is Plasmopara viticola.

`O=C(Nc1c(Cl)c(Cl)c(Cl)c(Cl)c1Cl)c1sc(C(F)(F)F)nc1C(F)(F)F` [Compound 2]: the “percent disease control, Wheat Powdery Mildew (WPM)” value (shortened to “percent disease control … (WPM)”) in data set [1] is 80% and 75% and 50%. For the same compound, the “percent disease control, Wheat Leaf Rust (WLR)” value (“percent disease control … (WLR)” for short) in data set [2] was 100% and 99% and 90%.

For the compound `O=C(Nc1c(Br)cc(Br)cc1Br)c1sc(C(F)(F)F)nc1C(F)(F)F` [Compound 3], in data set [1], the “percent disease control … (WPM)” value is 85% and 80% and 50%. Further, the “percent disease control … (WLR)” value in data set [2] is 99% and 90% and 85%.

As for `O=C(Nc1cc(F)c(F)c(F)c1F)c1sc(C(F)(F)F)nc1C(F)(F)F` [Compound 4], the “plant damage (necrosis / death of plant) in RB test” value in data set [3] is recorded as 50/5. In addition, in data set [4], the “percent disease control, Cucumber Powdery Mildew (CPM)” value is 0% and 0/5%. Further, the “plant damage (necrosis / death of plant) in SNW test” value in data set [5] is given as “—/5”.

Regarding `O=C(Nc1c(Br)cc(OC(F)(F)F)cc1Br)c1sc(C(F)(F)F)nc1C(F)(F)F` [Compound 5], the “percent disease control, Grape Downy Mildew (GDM)” value in data set [6] amounted to 0%. In addition, the “percent disease control … (WPM)” value in data set [1] was 95% and 80%. For the same compound, the “percent disease control … (WLR)” value in data set [2] was 100% and 95%. Further, the “percent disease control, Rice Blast (RB)” value in data set [3] is 95% and 90%. In addition, in data set [5], the “percent disease control, Septoria on Wheat (SNW)” value is 80% and 75%.
